Experimental data published in ChEMBL document CHEMBL1201862, “PubChem BioAssay data set” (2004).
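Cultured in 96-well plates, cells were exposed to test compound for 48 hours across five concentrations. GI50: concentration for 50% inhibition of growth.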 Activity calls are given as the source filed them. No stated cut-off is given here; in the data, active = GI50 up to about 1.1 µM and inactive = higher.

Tests used:
Assay in all cases: NCI tumour cell line growth inhibition, 48 h
[1] = test system: MDA-N
[2] = test system: MCF7
[3] = test system: 786-0
[4] = test system: LOX IMVI
[5] = test system: SK-OV-3
[6] = test system: SNB-75
[7] = test system: HT-29
[8] = test system: CAKI-1
[9] = test system: OVCAR-4
[10] = test system: NCI-H23
[11] = test system: KM12
[12] = test system: UACC-62
[13] = test system: SF-268
[14] = test system: TK-10
[15] = test system: COLO 205
[16] = test system: RXF 393
[17] = test system: SN12C
[18] = test system: HOP-62
[19] = test system: UO-31
[20] = test system: A498

SMILES	GI50 [1]	GI50 [2]	GI50 [3]	GI50 [4]	GI50 [5]	GI50 [6]	GI50 [7]	GI50 [8]	GI50 [9]	GI50 [10]	GI50 [11]	GI50 [12]	GI50 [13]	GI50 [14]	GI50 [15]	GI50 [16]	GI50 [17]	GI50 [18]	GI50 [19]	GI50 [20]
Nc1nc(Cl)nc2c1ncn2C1CCC(COP(=O)(O)OP(=O)(O)OP(=O)(O)O)O1 (stereo not given)	38 µM (inactive)	29.4 µM (inactive)	37.3 µM (inactive)	28.3 µM (inactive)	57.3 µM (inactive)	34.4 µM (inactive)	32 µM (inactive)	6.89 µM (inactive)	24.9 µM (inactive)	19.9 µM (inactive)	32.4 µM (inactive)	18.1 µM (inactive)	47.9 µM (inactive)	25.1 µM (inactive)	20.5 µM (inactive)	24.5 µM (inactive)	38.8 µM (inactive)	19.2 µM (inactive)	12.7 µM (inactive)	26.1 µM (inactive)
O=C(/C=C/c1cccc(Br)c1)N1CCN(CCOC(c2ccccc2)c2ccccc2)CC1	41.4 µM (inactive)	35 µM (inactive)	40.1 µM (inactive)	24.2 µM (inactive)	> 100 µM (inactive)	26.2 µM (inactive)	21.6 µM (inactive)	> 100 µM (inactive)	63.2 µM (inactive)	42 µM (inactive)	32 µM (inactive)	25.9 µM (inactive)	> 100 µM (inactive)	> 100 µM (inactive)	17.5 µM (inactive)	35.7 µM (inactive)	31.7 µM (inactive)	> 100 µM (inactive)	25.4 µM (inactive)	44.9 µM (inactive)
CCOC(=O)c1cn2c(n1)sc1c(Cl)c(Cl)ccc12	1.56 µM (inactive)	11.1 µM (inactive)	7.66 µM (inactive)	13.2 µM (inactive)	> 51.8 µM (inactive)	15 µM (inactive)	12 µM (inactive)	9.86 µM (inactive)	46.6 µM (inactive)	29.4 µM (inactive)	5.36 µM (inactive)	20.2 µM (inactive)	16.9 µM (inactive)	24.4 µM (inactive)	6.1 µM (inactive)	23.8 µM (inactive)	3.45 µM (inactive)	15.5 µM (inactive)	13.4 µM (inactive)	20.6 µM (inactive)
Nc1ccccc1N/C=C\C(=O)C(Cl)(Cl)Cl	16.6 µM (inactive)	14.5 µM (inactive)	15 µM (inactive)	15.9 µM (inactive)	25.2 µM (inactive)	22.6 µM (inactive)	18.9 µM (inactive)	19.6 µM (inactive)	19.5 µM (inactive)	22.7 µM (inactive)	15.5 µM (inactive)	17.5 µM (inactive)	40.3 µM (inactive)	30.6 µM (inactive)	22.8 µM (inactive)	20.1 µM (inactive)	19 µM (inactive)	19.3 µM (inactive)	19.2 µM (inactive)	18.8 µM (inactive)
C#CC(O)/C=C/C(O)CCCC(O)CC#CC(O)C#CCCCCC(O)/C=C/CCCC(O)/C=C/CCCCCCCCCCCCCC(O)C(O)C#CC(=O)O (stereo not given)	> 25 µM (inactive)	> 25 µM (inactive)	> 25 µM (inactive)	13.9 µM (inactive)	> 25 µM (inactive)	20 µM (inactive)	> 25 µM (inactive)	> 25 µM (inactive)	> 25 µM (inactive)	> 25 µM (inactive)	> 25 µM (inactive)	> 25 µM (inactive)	> 25 µM (inactive)	> 25 µM (inactive)	> 25 µM (inactive)	> 25 µM (inactive)	> 25 µM (inactive)	> 25 µM (inactive)	> 25 µM (inactive)	> 25 µM (inactive)
Nc1ccccc1/N=N/c1c(S(=O)(=O)O)cc2cc(S(=O)(=O)O)cc(O)c2c1O	32.4 µM (inactive)	> 100 µM (inactive)	45.7 µM (inactive)	> 100 µM (inactive)	> 100 µM (inactive)	> 100 µM (inactive)	> 100 µM (inactive)	> 100 µM (inactive)	> 100 µM (inactive)	> 100 µM (inactive)	> 100 µM (inactive)	> 100 µM (inactive)	> 100 µM (inactive)	> 100 µM (inactive)	> 100 µM (inactive)	> 100 µM (inactive)	11.2 µM (inactive)	> 100 µM (inactive)	> 100 µM (inactive)	> 100 µM (inactive)
C=CN1CCN(c2ccccc2)P1(=O)Oc1ccccc1 (stereo not given)	63.4 µM (inactive)	> 100 µM (inactive)	> 100 µM (inactive)	> 100 µM (inactive)	> 100 µM (inactive)	16.4 µM (inactive)	92.9 µM (inactive)	> 100 µM (inactive)	> 100 µM (inactive)	> 100 µM (inactive)	> 100 µM (inactive)	53.1 µM (inactive)	> 100 µM (inactive)	39.9 µM (inactive)	> 100 µM (inactive)	42.5 µM (inactive)	> 100 µM (inactive)	> 100 µM (inactive)	20 µM (inactive)	> 100 µM (inactive)
O=C(COc1ccc(OCC(=O)N2C(=O)CC/C2=N\c2ccc(Cl)cc2)cc1)N1C(=O)CS/C1=N\c1ccc(Cl)cc1	> 100 µM (inactive)	35.3 µM (inactive)	> 100 µM (inactive)	25.2 µM (inactive)	> 100 µM (inactive)	18.5 µM (inactive)	48.4 µM (inactive)	> 100 µM (inactive)	75.3 µM (inactive)	42 µM (inactive)	75.2 µM (inactive)	> 100 µM (inactive)	> 100 µM (inactive)	> 100 µM (inactive)	47.9 µM (inactive)	> 100 µM (inactive)	> 100 µM (inactive)	73.1 µM (inactive)	37.2 µM (inactive)	> 100 µM (inactive)
COc1cc(/C=C/c2sc3ccccc3[n+]2C)ccc1N(C)C	2.48 µM (inactive)	4.45 µM (inactive)	12.2 µM (inactive)	15.8 µM (inactive)	23.6 µM (inactive)	> 10 µM (inactive)	17.9 µM (inactive)	35.6 µM (inactive)	1.33 µM (inactive)	11.5 µM (inactive)	3.62 µM (inactive)	5.26 µM (inactive)	13.8 µM (inactive)	13.2 µM (inactive)	1.29 µM (inactive)	16.6 µM (inactive)	12.9 µM (inactive)	17.9 µM (inactive)	< 0.01 µM (active)	44 µM (inactive)
C=C1C(=O)OC2C1C(OC(=O)/C(C)=C/C)CC1(C)C(=O)CCC(=C)C21 (stereo not given)	5.07 µM (inactive)	4.49 µM (inactive)	4.02 µM (inactive)	3.94 µM (inactive)	25.2 µM (inactive)	15.9 µM (inactive)	4.88 µM (inactive)	4.79 µM (inactive)	11 µM (inactive)	12.8 µM (inactive)	16.4 µM (inactive)	8.47 µM (inactive)	10.7 µM (inactive)	4.89 µM (inactive)	5.33 µM (inactive)	2.83 µM (inactive)	2.15 µM (inactive)	16.9 µM (inactive)	6.55 µM (inactive)	13.8 µM (inactive)
C/C=C(\C)CC/C=C/CO[Si](C)(C)C(C)(C)C	> 100 µM (inactive)	40.1 µM (inactive)	> 100 µM (inactive)	22.3 µM (inactive)	> 100 µM (inactive)	> 100 µM (inactive)	42.5 µM (inactive)	> 100 µM (inactive)	> 100 µM (inactive)	> 100 µM (inactive)	> 100 µM (inactive)	> 100 µM (inactive)	> 100 µM (inactive)	> 100 µM (inactive)	> 100 µM (inactive)	> 100 µM (inactive)	> 100 µM (inactive)	> 100 µM (inactive)	> 100 µM (inactive)	> 100 µM (inactive)
COC1=CC(=O)c2c(O)c3c(c(O)c2C1=O)C[C@](C)(O)C[C@@H]3O	1.88 µM (inactive)	4.89 µM (inactive)	7.76 µM (inactive)	2.54 µM (inactive)	14.1 µM (inactive)	9.42 µM (inactive)	2.72 µM (inactive)	17.4 µM (inactive)	3.72 µM (inactive)	2.43 µM (inactive)	4.13 µM (inactive)	1.46 µM (inactive)	5.25 µM (inactive)	23.2 µM (inactive)	1.77 µM (inactive)	5.3 µM (inactive)	3.63 µM (inactive)	8.45 µM (inactive)	11.4 µM (inactive)	7.66 µM (inactive)
Cc1cccc2sc(NC(=O)c3cc([N+](=O)[O-])ccc3Cl)nc12	1.56 µM (inactive)	1.68 µM (inactive)	1.89 µM (inactive)	2.01 µM (inactive)	13.1 µM (inactive)	1 µM (active)	1.85 µM (inactive)	3.85 µM (inactive)	8.51 µM (inactive)	2.79 µM (inactive)	2.42 µM (inactive)	3.61 µM (inactive)	3.13 µM (inactive)	2.59 µM (inactive)	5.96 µM (inactive)	2.01 µM (inactive)	1.55 µM (inactive)	11.8 µM (inactive)	2.34 µM (inactive)	17.3 µM (inactive)
CC1(C)OC(=O)C(C)(C)OC1=O	> 100 µM (inactive)	> 100 µM (inactive)	> 100 µM (inactive)	> 100 µM (inactive)	> 100 µM (inactive)	> 100 µM (inactive)	> 100 µM (inactive)	> 100 µM (inactive)	> 100 µM (inactive)	> 100 µM (inactive)	> 100 µM (inactive)	> 100 µM (inactive)	> 100 µM (inactive)	> 100 µM (inactive)	> 100 µM (inactive)	> 100 µM (inactive)	> 100 µM (inactive)	> 100 µM (inactive)	> 100 µM (inactive)	> 100 µM (inactive)
